One data set addresses Cathepsin K (Homo sapiens, UniProt P43235). Briefly: Cathepsin IC50, Cathepsin K. Format: biochemical.
In data set [1] the test system is hepatocyte. Nature of the data set: Hepatocyte clearance human. The format is in vitro ADME. The conditions noted are these: human hepatocytes. An excerpt:
(§1) log P: partition coefficient; lipophilicity measurement. log D: distribution co-efficient; lipophilicity measurement. TPSA: topological polar surface area. Turbidimetric solubility: Test compound solution prepared in DMSO diluted into aqueous buffer. Turbidimetry is used as the end-point by measuring absorbance at 620 nm. FaSSIF: simulated intestinal fluid in fasted state measured at pH 6.5. Hep Cl mouse: in vitro hepatocyte clearance in mouse cells. Hep Cl human: in vitro hepatocyte clearance in human cells. Plasma fu,p: The free fraction of a compound in plasma preparation determined by in vitro equilibrium dialysis. It is understood that only unbound (free) compound is capable of engaging with the target. Brain fu,br: The free fraction of a compound in brain homogenate preparation determined by in vitro equilibrium dialysis. It is understood that only unbound (free) compound is capable of engaging with the target. Clu: in vitro clearance. Clu as defined here is the scaled clearance, in turn calculated from the intrinsic clearance. The intrinsic clearance is the predicted clearance due to hepatic metabolic reactions, determined from incubation of a compound in a hepatocyte preparation. […] Cl in vivo clearance: Pharmacokinetic measurement of the volume of plasma (or any matrix) from which a substance is completely removed per unit time.

A short description of another data set: Log D measurement. The format is physicochemical. The conditions noted are these: pH 7.4; read-out: Log D measured at pH 7.4.
Excerpt: as §1

A further data set is described as follows: PK mouse. Format: in vivo. The conditions noted are these: for Unbound plasma Cmax/TOM20-Ub cell potency: 10 mg/kg PO dose - mouse; for bioavailability: po, 10 mg/kg, read-out: PK mouse Oral F (%); for bioavailability / clearance: mouse.
Excerpt: as §1
(§2) MDR1-MDCK (Madin-Darby Canine Kidney cell monolayer) (in vitro) flux assay. Cell TE WB: USP30 endogenous cellular target engagement western blot (WB) assay. Assays the activity of compounds against USP30 in cells using an irreversible activity probe to monitor USP30 activity. TE ex vivo: USP30 kidney tissue target engagement assay. Kp u,u is the ratio of unbound drug in brain to unbound drug in plasma and may be indicative of potential for treating peripheral and/or CNS indications.

Data set [2] concerns hepatocyte. Nature of the data set: Hepatocyte clearance mouse. Format: in vitro ADME. Conditions: mouse hepatocytes.
Excerpt: as §1

For the next data set, the system named is TOM20 ubiquitylation. Nature of the data set: TOM20-ubiquitylation assay. Format: cell-based, human. The conditions noted are these: antimycin A/oligomycin mitophagy trigger. An excerpt: Human cell lines can be challenged with mitochondrial depolarizing agents (ionophores (eg. CCCP, valinomycin), mitochondrial complex inhibitors (oligomycin, antimycin A)) to induce ubiquitylation of TOM20, which is then further promoted in the presence of USP30 inhibitors. TOM20 ubiquitylation is subsequently assessed through western blotting of the cell lysates, with TOM20 ubiquitylation adduct detection possible due to an 8 kDa molecule weight increase for each molecule of ubiquitin added, resulting in laddering of a TOM20 immunoreactive band. TOM20-ubiquitylation levels can be quantified using chemiluminescence densitometry of laddered immunoreactive bands.

The nature of the next data set: FaSSIF solubility. The format is physicochemical. The conditions noted are these: pH 6.5, simulated intestinal fluid in fasted state.
Excerpt: as §1

The subject of data set [3] is UCHL1, USP1, USP2, USP6, USP9x, USP10, USP15, USP16, USP20, USP21, USP22, USP25, USP28, USP35, USP36, USP46/UAF1. Nature of the data set: DUB biochemical IC50 assays (off-target panel).
The subject of data set [4] is P-glycoprotein (MDR1), human. Nature of the data set: MDR1-MDCK flux assay. Format: in vitro ADME. The conditions noted are these: dog; for Papp A→B: value in brackets.
Excerpt: The treatment of CNS disorders, including Alzheimer's disease, Parkinson's disease, and other disorders described herein, requires drug molecules to target the brain, which requires adequate penetration of the blood brain barrier. […] The probability that a compound can cross the blood brain barrier may be measured by an in vitro flux assay utilizing a MDR1-MDCK cell monolayer (Madin-Darby Canine Kidney cells transfected with MDR-1 resulting in overexpression of the human efflux transporter P-glycoprotein). Additionally, exposure may also be measured directly in brain and plasma using in vivo animal models.
as §2

The test system of data set [5] is HCT116 human colorectal carcinoma cells. Briefly: In vitro cytotoxicity (Cell Tox), alamarBlue. Format: cell-based. Conditions: HCT-116, 96-hour continual compound exposure. As for the experimental part:
In Vitro Cytotoxicity (Cell Tox): Measured in HCT116 human colorectal carcinoma cells using alamarBlue™ as the assay endpoint. Compound cytotoxicity was measured over a period of 96-hour continual compound exposure.
A general note: Resazurin is reduced to fluorescent resorufin, in cell work by metabolically active cells.

The next data set addresses T1, UCHL1 (Homo sapiens, UniProt P09936).
T1 sequence (P09936 1-223): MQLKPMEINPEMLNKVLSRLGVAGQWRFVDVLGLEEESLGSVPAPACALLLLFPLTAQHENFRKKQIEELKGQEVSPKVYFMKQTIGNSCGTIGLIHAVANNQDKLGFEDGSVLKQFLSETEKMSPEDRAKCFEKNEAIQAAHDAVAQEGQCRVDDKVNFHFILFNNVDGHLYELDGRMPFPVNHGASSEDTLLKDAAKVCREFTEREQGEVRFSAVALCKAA
Nature of the data set: DUB IC50 UCHL1. Format: biochemical.

The target in a further data set is T2, hERG potassium channel (Homo sapiens, UniProt Q12809).
T2 construct: expressed in transfected cells
T2 sequence (Q12809 whole entry): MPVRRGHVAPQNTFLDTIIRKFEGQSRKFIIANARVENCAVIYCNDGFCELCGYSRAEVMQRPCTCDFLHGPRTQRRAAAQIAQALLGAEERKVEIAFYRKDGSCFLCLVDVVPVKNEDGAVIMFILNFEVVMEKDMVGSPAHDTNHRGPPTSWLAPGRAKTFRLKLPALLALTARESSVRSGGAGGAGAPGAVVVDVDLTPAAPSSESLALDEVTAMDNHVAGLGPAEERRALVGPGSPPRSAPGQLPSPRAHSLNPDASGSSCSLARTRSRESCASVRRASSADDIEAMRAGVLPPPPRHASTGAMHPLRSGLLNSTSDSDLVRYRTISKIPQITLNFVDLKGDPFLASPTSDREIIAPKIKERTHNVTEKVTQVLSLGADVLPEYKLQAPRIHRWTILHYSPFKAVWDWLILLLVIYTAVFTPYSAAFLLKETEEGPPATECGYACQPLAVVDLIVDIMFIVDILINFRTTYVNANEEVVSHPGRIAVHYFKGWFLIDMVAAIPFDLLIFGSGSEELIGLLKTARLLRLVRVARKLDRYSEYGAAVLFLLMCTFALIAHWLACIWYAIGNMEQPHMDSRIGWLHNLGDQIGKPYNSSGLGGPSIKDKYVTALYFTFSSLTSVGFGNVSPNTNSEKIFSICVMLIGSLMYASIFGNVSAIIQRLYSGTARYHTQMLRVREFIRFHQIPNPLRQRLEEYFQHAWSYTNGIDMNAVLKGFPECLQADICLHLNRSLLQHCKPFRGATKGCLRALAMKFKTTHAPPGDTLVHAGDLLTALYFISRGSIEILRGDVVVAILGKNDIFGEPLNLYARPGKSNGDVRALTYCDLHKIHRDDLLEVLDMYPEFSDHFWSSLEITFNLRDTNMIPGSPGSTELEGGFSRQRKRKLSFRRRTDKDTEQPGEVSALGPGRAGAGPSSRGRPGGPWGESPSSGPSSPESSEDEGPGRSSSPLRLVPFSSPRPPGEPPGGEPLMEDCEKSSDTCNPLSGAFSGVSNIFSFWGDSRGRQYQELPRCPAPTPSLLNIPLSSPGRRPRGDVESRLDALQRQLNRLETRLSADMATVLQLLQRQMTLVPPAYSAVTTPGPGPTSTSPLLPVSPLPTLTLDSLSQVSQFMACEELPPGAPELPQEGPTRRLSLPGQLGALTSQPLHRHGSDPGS
Nature of the data set: hERG potassium channel in stably expressed CHO cells. The conditions noted are these: for IC50: 0.01 to 30 μM, n=3; for inhibition at 30 µM: human, CHO cells stably expressing hERG, read-out: inhibition of the hERG current amplitude. Format: cell-based. As for the experimental part: The hERG predictor assay provides valuable information about the possible binding of test compounds to the potassium channel and potential QT prolongation on […]. Inhibition of the hERG current causes QT interval prolongation resulting in potentially fatal ventricular tachyarrhythmia (Torsades de Pointes). Typically, assay data may be generated from an automated patch-clamp assay platform.
Example 1 was evaluated for effects on the hERG potassium channel, in stably expressed CHO cells at concentrations between 0.01 and 30 μM.
Example 2 was evaluated for effects on the hERG potassium channel, in stably expressed CHO cells at concentrations between 0.01 and 30 μM.

In data set [6] the test system is USP2, USP10, USP16, USP21, USP22, USP25, USP28. Briefly: DUB IC50, seven DUBs. The format is biochemical. The conditions noted are these: range over the seven DUBs.
The nature of a further data set: Mouse plasma stability. Conditions: read-out: Stability Mouse plasma t1/2. The format is in vitro ADME.
Data set [7] concerns cathepsins B, K, L, S and V. Briefly: Cathepsin IC50, summary over B, K, L, S, V. Conditions: K, L; for fold more potent against USP30 than against each of the cathepsins, at a minimum: cathepsins B, S and V; for Selectivity preference for USP30 v cathepsins: range over cathepsins B, S. The format is biochemical.
Data set [8] has as its system T3, cathepsins B, K, L, S and V.
T3 construct: Cathepsin IC50 (μM) B, K, L, S, V; other: range over the five cathepsins
Nature of the data set: Cathepsin IC50, summary over B, K, L, S, V. The format is biochemical. Conditions: range over the five cathepsins.

[9] abbreviates: whole blood, 2 mg/kg iv, read-out: PK mouse Cl blood.

Like-named read-outs stand apart in the source and are kept apart here. Where only a bound is given, the exact number is not on record here.

Sequence of Cathepsin K (P43235 115-329, species assumed): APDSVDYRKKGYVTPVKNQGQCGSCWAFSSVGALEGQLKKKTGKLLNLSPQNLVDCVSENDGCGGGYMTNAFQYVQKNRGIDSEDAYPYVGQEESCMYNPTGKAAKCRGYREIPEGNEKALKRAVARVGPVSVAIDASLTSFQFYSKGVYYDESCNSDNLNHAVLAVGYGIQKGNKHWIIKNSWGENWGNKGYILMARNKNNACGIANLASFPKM

Usually IC50 stands for the concentration at which inhibition is half-maximal. Low readings indicate inhibition by little substance, high ones a need for much substance. What is called efflux ratio is the permeability from basolateral to apical divided by that in the opposite direction, in the common usage. For orientation: Papp A→B means the apparent permeability from the apical to the basolateral side of a cell layer. Read a high Papp A→B as ready permeation. The EC50 is the concentration giving half of the maximal effect. For orientation: inhibition means the relative decrease from the control value, in per cent. Turning to `COC[C@@H]1C[C@@H](NC(=O)c2ncc(-c3cccc(OC(F)(F)F)c3)o2)CN1C#N` [Example 1, N-((3R,5S)-1-Cyano-5-(methoxymethyl)pyrrolidin-3-yl)-5-(3-(trifluoromethoxy)phenyl)oxazole-2-carboxamide], half-maximal inhibition against Cathepsin K (IC50) was put at 16.5 µM. In the data set on hepatocyte [1], the “Hepatocyte Cl human scaled Clu” value worked out at 5.6 mL/min/kg. Besides, the logD in “Log D measurement” amounted to 2.9. For the same compound, the Kp uu in the data set “PK mouse” (2 mg/kg IV dose - mouse, unbound brain to unbound plasma) came out at 0.21. For the same compound, in “PK mouse”, the “Unbound plasma Cmax/TOM20-Ub cell potency” value is on record as 25-fold. Further, in “PK mouse” (plasma), the bioavailability stood at 59%. The clearance in the data set “PK mouse” (plasma, IV, read-out: IV plasma clearance) turned out to be 20 mL/min/kg. Moreover, the clearance in the data set “PK mouse” (setting [9]) worked out at 20 mL/min/kg. Besides, in the data set with hepatocyte [2], the “Hepatocyte Cl mouse scaled Clu” value was 84.7 mL/min/kg. Further, in the data set on TOM20 ubiquitylation, the “TOM20-Ub 1.5-fold gain EC1.5x (μM)” value is 0.011 (n = 6) μM. Also, in “FaSSIF solubility”, the “FaSSIF (μM) measured at pH 6.5” value is 89 μM. In addition, the “more selective for USP30 over DUB panel” value in [3] (v the 16 DUBs of the 9th table) is recorded as “(≥880 × more selective”. Further, in data set [4], the efflux ratio is 5.4 and the Papp A→B was determined as 18 ×10⁻⁶ cm/s. This compound had a 50% effective concentration (EC50) in [5] above 30 µM. On UCHL1, the “DUB selectivity preference for USP30 v UCHL1” value was found to be 60000 and the IC50 was above 300 µM. In addition, on hERG potassium channel, the IC50 came out at 34.3 µM and the inhibition at 30 µM was 44.3%. Moreover, the “DUB selectivity preference for USP30 v 7 DUBs” value in data set [6] is given as 880-14380. Further, in “Mouse plasma stability”, the half-life is 11 h. For the same compound, in data set [7], the “fold more potent against USP30 than against each of the cathepsins, at a minimum” value was at least 3300 fold and the “Selectivity preference for USP30 v cathepsins” value is 3300-31600. In addition, the IC50 in data set [8] was 16.5 to 158 µM.
On Cathepsin K, `C[C@@H]1C[C@@H](NC(=O)c2ncc(-c3cccc(OC(F)(F)F)c3)o2)CN1C#N` [Example 2, N-((3R,5R)-1-Cyano-5-methylpyrrolidin-3-yl)-5-(3-(trifluoromethoxy)phenyl)oxazole-2-carboxamide] showed an IC50 of 9.8 µM. The “Hepatocyte Cl human scaled Clu” value in the data set with hepatocyte [1] came to 11.2 mL/min/kg. Besides, the logD in the data set “Log D measurement” was determined as 3.4. Also, the “Unbound plasma Cmax/TOM20-Ub cell potency” value in the data set “PK mouse” is recorded as 7-fold. Moreover, the bioavailability in the data set “PK mouse” (in vivo) came out at 36%. Further, in the data set “PK mouse” (setting [9]), the clearance was found to be 58 mL/min/kg. Also, in the data set with hepatocyte [2], the “Hepatocyte Cl mouse scaled Clu” value came to 130.6 mL/min/kg. Also, the “TOM20-Ub 1.5-fold gain EC1.5x (μM)” value with TOM20 ubiquitylation is on record as 0.009 (n = 4) μM. Further, the “FaSSIF (μM) measured at pH 6.5” value in “FaSSIF solubility” is recorded as 25 μM. Further, in data set [3] (v the 14 DUBs of the 10th table), the “more selective for USP30 over DUB panel” value is “(≥940 × more selective”. Moreover, in data set [4], the efflux ratio turned out to be 1.9 and the Papp A→B is 12 ×10⁻⁶ cm/s. The EC50 in data set [5] was determined as 24 µM. At UCHL1, the “DUB selectivity preference for USP30 v UCHL1” value was determined as 20000 and the IC50 was above 100 µM. Besides, on hERG potassium channel, the IC50 came out at 24.7 µM and the inhibition at 30 µM is 54.3%. In addition, in data set [6], the “DUB selectivity preference for USP30 v 7 DUBs” value is 940->20000. In the data set “Mouse plasma stability”, the half-life is 7 h. In addition, in data set [7], the “fold more potent against USP30 than against each of the cathepsins, at a minimum” value is given as at least 1700 fold and the “Selectivity preference for USP30 v cathepsins” value is reported as 1700-6000. In addition, the IC50 in [8] is at least 8.5 µM.

Values taken from patent publication US20230119013A1, “N-CYANOPYRROLIDINES WITH ACTIVITY AS USP30 INHIBITORS” (MISSION THERAPEUTICS LIMITED, priority 2020, published 2023).
